Test results reported in patent US9567345B2, “Pharmaceutically active pyrazolo-triazine derivatives” (LEAD DISCOVERY CENTER GMBH, priority 2012, dated 2017).
pIC50: −log10 of the molar value. Read-outs that look alike come from different tables or passages of the source.

Tests used:
Format in all cases: biochemical
CDK7/CycH/Mat1 = CDK7/CycH/Mat1 (Homo sapiens, UniProt P50613); assay: CDK7 Enzymatic Activity Assay (Lance Kinase Activity Assay, FRET); details: for IC50: CDK7/CycH/Mat1, 25 μM ATP final, class ranges, read-out: CDK7: IC50 [nM] for CDK7 inhibition; for pIC50: read-out: IC50 CDK7
Chain of CDK7/CycH/Mat1 (P50613 whole entry): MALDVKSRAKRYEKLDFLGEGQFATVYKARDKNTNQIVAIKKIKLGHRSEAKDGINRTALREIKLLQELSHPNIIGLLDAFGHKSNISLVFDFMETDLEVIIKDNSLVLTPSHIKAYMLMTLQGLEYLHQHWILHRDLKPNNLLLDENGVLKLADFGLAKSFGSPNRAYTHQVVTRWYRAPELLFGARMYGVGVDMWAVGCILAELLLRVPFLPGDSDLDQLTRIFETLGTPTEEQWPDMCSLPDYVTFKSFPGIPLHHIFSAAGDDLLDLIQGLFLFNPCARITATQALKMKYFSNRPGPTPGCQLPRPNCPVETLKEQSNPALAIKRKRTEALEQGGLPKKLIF
Outline: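 TR-FRET (LANCE) kinase assay: CDK7/CycH/Mat1 phosphorylates Ulight-MBP substrate for 1 h at room temperature in pH 7.5 HEPES buffer; detection 1 h with Eu-labelled anti-phospho antibody plus EDTA.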

CDK9/Cyclin T1 = CDK9/Cyclin T1 (Homo sapiens, UniProt P50750); assay: CDK9 Enzymatic Activity Assay (Lance Kinase Activity Assay, FRET); details: for IC50: Table 5B, class symbols per IC50 [nM] ranges of b581, read-out: CDK9: Selectivity of CDK7 inhibition over CDK9 inhibition
Chain of CDK9/Cyclin T1 (P50750 whole entry): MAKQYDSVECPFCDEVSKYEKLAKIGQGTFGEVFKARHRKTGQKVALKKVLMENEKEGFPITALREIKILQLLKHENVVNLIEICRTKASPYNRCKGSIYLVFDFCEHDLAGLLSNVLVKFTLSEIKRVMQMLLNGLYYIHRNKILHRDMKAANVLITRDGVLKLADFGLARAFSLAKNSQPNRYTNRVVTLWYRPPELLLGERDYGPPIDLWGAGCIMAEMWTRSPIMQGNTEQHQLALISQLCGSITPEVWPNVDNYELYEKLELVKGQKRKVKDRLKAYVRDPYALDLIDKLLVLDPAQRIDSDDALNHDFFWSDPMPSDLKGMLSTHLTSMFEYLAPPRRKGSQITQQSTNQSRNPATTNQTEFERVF
Chain of CDK9/Cyclin T1 (O60563 whole entry partner): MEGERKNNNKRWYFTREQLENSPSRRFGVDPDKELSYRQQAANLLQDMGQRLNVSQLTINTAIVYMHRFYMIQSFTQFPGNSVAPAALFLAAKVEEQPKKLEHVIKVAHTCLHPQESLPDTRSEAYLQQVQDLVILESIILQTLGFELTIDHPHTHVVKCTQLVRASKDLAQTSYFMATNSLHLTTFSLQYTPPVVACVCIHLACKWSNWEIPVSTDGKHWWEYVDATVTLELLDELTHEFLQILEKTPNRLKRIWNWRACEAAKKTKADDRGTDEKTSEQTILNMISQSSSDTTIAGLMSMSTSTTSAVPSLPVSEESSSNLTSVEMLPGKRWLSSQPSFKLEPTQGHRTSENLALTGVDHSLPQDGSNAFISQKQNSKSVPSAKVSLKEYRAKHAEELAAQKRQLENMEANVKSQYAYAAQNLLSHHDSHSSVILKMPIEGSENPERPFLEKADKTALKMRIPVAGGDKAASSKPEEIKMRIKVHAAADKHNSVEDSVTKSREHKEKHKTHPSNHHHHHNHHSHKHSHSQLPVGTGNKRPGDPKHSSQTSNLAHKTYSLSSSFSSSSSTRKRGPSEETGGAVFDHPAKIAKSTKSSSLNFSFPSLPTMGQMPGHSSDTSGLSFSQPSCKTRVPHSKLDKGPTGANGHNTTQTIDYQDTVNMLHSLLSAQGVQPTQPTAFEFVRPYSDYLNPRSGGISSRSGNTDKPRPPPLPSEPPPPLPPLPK
Outline: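 CDK9/cyclin T1 phosphorylation of a ULight-MBP peptide was run for 1 h at room temperature in pH 7.5 HEPES buffer with MgCl2, EGTA, DTT and Tween-20. It was followed by 1 h with Eu-anti-phospho-MBP antibody (4 nM) in EDTA detection buffer. TR-FRET loss gave IC50 from 8-point, 1:3 sigmoidal dose-response curves.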

CDK2/CycA = biological target: T1, CDK2/CycA (Homo sapiens, UniProt P24941); assay: CDK2 Enzymatic Activity Assay (Lance Kinase Activity Assay, FRET); details: for IC50: Table 5B, class symbols per IC50 [nM] ranges of b581, read-out: CDK2: Selectivity of CDK7 inhibition over CDK2 inhibition
T1 construct: purchased Proqinase
Procedure: This protocol describes how the Lance Kinase Activity Assay was performed to determine IC50 values of compounds of general formula (I) against CDK/Cyclin complexes. The principle behind this enzymatic assay is based upon the phosphorylation of the Ulight-Peptide Substrat. It is detected by using a specific EU-labeled anti-phospho peptide antibody.
Binding of an inhibitor to the kinase prevents phosphorylation of the Ulight-MBP Substrat, resulting in a loss of FRET.
CDK2 Enzymatic Activity Assay
The compounds of general formula (I) exemplary summarized in Table 1 were diluted from a 10 mM DMSO stock solution 1:10 in a total volume of 15 μl DMSO. This compound predilution was then serial diluted 1:3 over 8 steps in DMSO and briefly spun down. Each compound solution was now diluted 1:20 in Enzymatic Buffer (HEPES: 50 mM, pH: 7.5; MgCl2: 10 mM; EGTA: 1 mM; DTT: 2 mM; Tween-20: 0.01%), mixed thoroughly and spun down.
For positive controls, 2 μl of DMSO working solution were mixed with 6 μl CDK2/CycA/substrate working solution and 2 μl ATP working solution. Positive and negative controls were calculated from at least 8 different wells. The 384 well plates were mixed in a Teleshaker plate mixer (Beckman Coulter, Brea, Calif., USA) at 2000 rpm for 40 sec, and incubated for 1 h at room temperature before addition of 10 μl LANCE Detection Buffer (EDTA: […]; Eu-Anti-P-MBP: 4 nM) per well. Plates were mixed in a Teleshaker plate mixer (Beckman Coulter, Brea, Calif., USA) at 2000 rpm for 40 sec, followed by incubation with Detection Buffer for 1 h, and reading. […] IC50 values were determined from the sigmoidal dose response curves with the software Quattro Workflow (Quattro GmbH, Munich, Germany).

## CC(C)c1cnn2c(NCc3cccc4cc[n+]([O-])cc34)nc(O[C@@H]3CCCNC3)nc12 [(VII-32), (R)-8-(((8-isopropyl-2-(piperidin-3-yloxy)pyrazolo[1,5-a][1,3,5]triazin-4-yl)amino)methyl)isoquinoline 2-oxide]
CDK7/CycH/Mat1
  IC50: < 5 nM
CDK9/Cyclin T1
  IC50: 50 to 500 nM
CDK2/CycA
  IC50: 50 to 500 nM

## CC(=O)Oc1ccccc1CNc1nc(O[C@@H]2CCCNC2)nc2c(C(C)C)cnn12 [(VII-145), (R)-2-(((8-isopropyl-2-(piperidin-3-yloxy)pyrazolo[1,5-a][1,3,5]triazin-4-yl)amino)methyl)phenyl acetate]
CDK7/CycH/Mat1
  IC50: 10 to 25 nM
CDK9/Cyclin T1
  IC50: 500 to 2500 nM
CDK2/CycA
  IC50: 500 to 2500 nM

## CC(C)c1cnn2c(NCc3cccc4ccncc34)nc(O[C@@H]3CCCNC3)nc12 [(VII-31), (R)-8-isopropyl-N-(isoquinolin-8-ylmethyl)-2-(piperidin-3-yloxy)pyrazolo[1,5-a][1,3,5]triazin-4-amine]
CDK7/CycH/Mat1
  IC50: < 5 nM
CDK9/Cyclin T1
  IC50: < 50 nM
CDK2/CycA
  IC50: 50 to 500 nM

## CC(C)c1cnn2c(NCc3ccccc3-c3nnnn3C)nc(O[C@@H]3CCCNC3)nc12 [(VII-29), (R)-8-isopropyl-N-(2-(1-methyl-1H-tetrazol-5-yl)benzyl)-2-(piperidin-3-yloxy)pyrazolo[1,5-a][1,3,5]triazin-4-amine]
CDK7/CycH/Mat1
  IC50: < 5 nM
CDK7/CycH/Mat1; Table 6
  pIC50: > 8.30
CDK9/Cyclin T1
  IC50: > 2500 nM
CDK9/Cyclin T1; Table 6
  Selectivity CDK7 over CDK9: 3255 fold
CDK2/CycA
  IC50: 50 to 500 nM
CDK2/CycA; Table 6
  Selectivity CDK7 over CDK2: 394 fold

## CC(C)c1cnn2c(NCc3ccccc3-n3cccn3)nc(OC3C[C@H]4CNC[C@@H]34)nc12 (stereo partly drawn) [(VII-123), N-(2-(1H-pyrazol-1-yl)benzyl)-2-((1R,5S)-3-azabicyclo[3.2.0]heptan-6-yloxy)-8-isopropylpyrazolo[1,5-a][1,3,5]triazin-4-amine]
CDK7/CycH/Mat1
  IC50: < 5 nM
CDK9/Cyclin T1
  IC50: > 2500 nM
CDK2/CycA
  IC50: 50 to 500 nM

## CC(C)c1cnn2c(NCc3ccccc3Br)nc(O[C@@H]3CCCNC3)nc12 [(VII-100), (R)-N-(2-bromobenzyl)-8-isopropyl-2-(piperidin-3-yloxy)pyrazolo[1,5-a][1,3,5]triazin-4-amine]
CDK7/CycH/Mat1
  IC50: < 5 nM
CDK9/Cyclin T1
  IC50: 50 to 500 nM
CDK2/CycA
  IC50: 50 to 500 nM

## CC(C)c1cnn2c(NCc3ccccc3-n3cncn3)nc(N[C@@H]3CCCNC3)nc12 [(VIII-33), (R)-N4-(2-(1H-1,2,4-triazol-1-yl)benzyl)-8-isopropyl-N2-(piperidin-3-yl)pyrazolo[1,5-a][1,3,5]triazine-2,4-diamine]
CDK7/CycH/Mat1
  IC50: < 5 nM
CDK9/Cyclin T1
  IC50: 500 to 2500 nM
CDK2/CycA
  IC50: < 50 nM

## CC(C)c1cnn2c(NCc3ccccc3-n3cccn3)nc(N(C)CCN3CCCC3)nc12 [(VIII-045), N4-(2-(1H-pyrazol-1-yl)benzyl)-8-isopropyl-N2-methyl-N2-(2-(pyrrolidin-1-yl)ethyl)pyrazolo[1,5-a][1,3,5]triazine-2,4-diamine]
CDK7/CycH/Mat1
  IC50: 10 to 25 nM
CDK9/Cyclin T1
  IC50: > 2500 nM
CDK2/CycA
  IC50: > 2500 nM

## CC(C)c1cnn2c(NCc3ccccc3NC(=O)NCc3ccccc3)nc(O[C@@H]3CCCNC3)nc12 [(VII-113), (R)-1-benzyl-3-(2-(((8-isopropyl-2-(piperidin-3-yloxy)pyrazolo[1,5-a][1,3,5]triazin-4-yl)amino)methyl)phenyl)urea]
CDK7/CycH/Mat1
  IC50: 10 to 25 nM
CDK9/Cyclin T1
  IC50: > 2500 nM
CDK2/CycA
  IC50: > 2500 nM

## CC(C)c1cnn2c(NCc3ccccc3-n3cccn3)nc(O[C@@H]3CCNC3)nc12 [(VII-02), (R)-N-(2-(1H-pyrazol-1-yl)benzyl)-8-isopropyl-2-(pyrrolidin-3-yloxy)pyrazolo[1,5-a][1,3,5]triazin-4-amine]
CDK7/CycH/Mat1
  IC50: < 5 nM
CDK9/Cyclin T1
  IC50: 500 to 2500 nM
CDK2/CycA
  IC50: < 50 nM

## CC(C)c1cnn2c(NCc3ccccc3-n3cccn3)nc(CN3CC(N4CCCC4=O)C3)nc12 [(XXX-8), 1-(1-((4-((2-(1H-pyrazol-1-yl)benzyl)amino)-8-isopropylpyrazolo[1,5-a][1,3,5]triazin-2-yl)methyl)azetidin-3-yl)pyrrolidin-2-one]
CDK7/CycH/Mat1
  IC50: > 25 nM
CDK9/Cyclin T1
  IC50: > 2500 nM
CDK2/CycA
  IC50: > 2500 nM

## CC(C)c1cnn2c(NCc3ccccc3-n3cccn3)nc(C(=O)N3CCNCC3)nc12 [(XII-9), (4-((2-(1H-pyrazol-1-yl)benzyl)amino)-8-isopropylpyrazolo[1,5-a][1,3,5]triazin-2-yl)(piperazin-1-yl)methanone]
CDK7/CycH/Mat1
  IC50: > 25 nM
CDK9/Cyclin T1
  IC50: > 2500 nM
CDK2/CycA
  IC50: > 2500 nM

## CC(C)c1cnn2c(NCc3ccccc3S(=O)(=O)N(C)C)nc(O[C@@H]3CCCNC3)nc12 [(VII-38), (R)-2-(((8-isopropyl-2-(piperidin-3-yloxy)pyrazolo[1,5-a][1,3,5]triazin-4-yl)amino)methyl)-N,N-dimethylbenzenesulfonamide]
CDK7/CycH/Mat1
  IC50: < 5 nM
CDK7/CycH/Mat1; Table 7
  pIC50: > 8.30
CDK9/Cyclin T1
  IC50: 500 to 2500 nM
CDK9/Cyclin T1; Table 7
  Selectivity CDK7 over CDK9: 2733 fold
CDK9/Cyclin T1; Table 7, read-out: IC50 CDK9
  pIC50: 5.60 to 6.30
CDK2/CycA
  IC50: 50 to 500 nM
CDK2/CycA; Table 7
  Selectivity CDK7 over CDK2: 342 fold
CDK2/CycA; Table 7, read-out: IC50 CDK2
  pIC50: 6.30 to 7.30

## CC(C)c1cnn2c(NCc3ccccc3-n3cccn3)nc(C(=O)NCC3CCCNC3)nc12 (centres unmarked) [(XII-4), 4-((2-(1H-pyrazol-1-yl)benzyl)amino)-8-isopropyl-N-(piperidin-3-ylmethyl)pyrazolo[1,5-a][1,3,5]triazine-2-carboxamide]
CDK7/CycH/Mat1
  IC50: < 5 nM
CDK9/Cyclin T1
  IC50: > 2500 nM
CDK2/CycA
  IC50: > 2500 nM

## CC(C)c1cnn2c(NCc3ccccc3-n3cccn3)nc(C(=O)NCC3CCNC3)nc12 (centres unmarked) [(XII-3), 4-((2-(1H-pyrazol-1-yl)benzyl)amino)-8-isopropyl-N-(pyrrolidin-3-ylmethyl)pyrazolo[1,5-a][1,3,5]triazine-2-carboxamide]
CDK7/CycH/Mat1
  IC50: < 5 nM
CDK9/Cyclin T1
  IC50: > 2500 nM
CDK2/CycA
  IC50: > 2500 nM

## CC(C)c1cnn2c(NCc3ccccc3-n3cccn3)nc(CN(C)CCCN3CCCCC3)nc12 [(XXX-6), N-(2-(1H-pyrazol-1-yl)benzyl)-8-isopropyl-2-((methyl(3-(piperidin-1-yl)propyl)amino)methyl)pyrazolo[1,5-a][1,3,5]triazin-4-amine]
CDK7/CycH/Mat1
  IC50: > 25 nM
CDK9/Cyclin T1
  IC50: > 2500 nM
CDK2/CycA
  IC50: > 2500 nM

## CC(C)c1cnn2c(NCc3ccccc3-n3cncn3)nc(OC3CCN(C)CC3)nc12 [(VII-74), N-(2-(1H-1,2,4-triazol-1-yl)benzyl)-8-isopropyl-2-((1-methylpiperidin-4-yl)oxy)pyrazolo[1,5-a][1,3,5]triazin-4-amine]
CDK7/CycH/Mat1
  IC50: < 5 nM
CDK9/Cyclin T1
  IC50: > 2500 nM
CDK2/CycA
  IC50: 50 to 500 nM

## CC(C)c1cnn2c(NCc3ccccc3-n3cccn3)nc(S(=O)(=O)C3CCNCC3)nc12 [(X-7), N-(2-(1H-pyrazol-1-yl)benzyl)-8-isopropyl-2-(piperidin-4-ylsulfonyl)pyrazolo[1,5-a][1,3,5]triazin-4-amine]
CDK7/CycH/Mat1
  IC50: < 5 nM
CDK9/Cyclin T1
  IC50: > 2500 nM
CDK2/CycA
  IC50: > 2500 nM

## CC(C)c1cnn2c(NCc3ccccc3S(=O)(=O)N3CCN(C)CC3)nc(O[C@@H]3CCCNC3)nc12 [(VII-107), (R)-8-isopropyl-N-(2-((4-methylpiperazin-1-yl)sulfonyl)benzyl)-2-(piperidin-3-yloxy)pyrazolo[1,5-a][1,3,5]triazin-4-amine]
CDK7/CycH/Mat1
  IC50: < 5 nM
CDK9/Cyclin T1
  IC50: > 2500 nM
CDK2/CycA
  IC50: 50 to 500 nM

## CC(C)c1cnn2c(NCc3ccccc3-n3cccn3)nc(N3CCCC(N)C3)nc12 (centres unmarked) [(VIII-053), N-(2-(1H-pyrazol-1-yl)benzyl)-2-(3-aminopiperidin-1-yl)-8-isopropylpyrazolo[1,5-a][1,3,5]triazin-4-amine]
CDK7/CycH/Mat1
  IC50: > 25 nM
CDK9/Cyclin T1
  IC50: > 2500 nM
CDK2/CycA
  IC50: > 2500 nM

## CC(C)c1cnn2c(NCc3ccccc3-c3ccccn3)nc(O[C@@H]3CCCNC3)nc12 [(VII-34), (R)-8-isopropyl-2-(piperidin-3-yloxy)-N-(2-(pyridin-2-yl)benzyl)pyrazolo[1,5-a][1,3,5]triazin-4-amine]
CDK7/CycH/Mat1
  IC50: < 5 nM
CDK9/Cyclin T1
  IC50: 500 to 2500 nM
CDK2/CycA
  IC50: 50 to 500 nM

## CC(C)c1cnn2c(NCc3ccccc3-c3cccs3)nc(OC3CCN(C)CC3)nc12 [(VII-65), 8-isopropyl-2-((1-methylpiperidin-4-yl)oxy)-N-(2-(thiophen-2-yl)benzyl)pyrazolo[1,5-a][1,3,5]triazin-4-amine]
CDK7/CycH/Mat1
  IC50: < 5 nM
CDK9/Cyclin T1
  IC50: > 2500 nM
CDK2/CycA
  IC50: 50 to 500 nM
